Reference: patent publication US9254308B2, “Kits and methods for the treatment of cancer using gliadin peptides” (BARMARSA RESEARCH LLC, priority 2013, dated 2016)
Where no end group is shown, it is not given here.

Key:
[1] = test system: PANC-1 human pancreatic carcinoma cells; test: Cell count, PANC-1 cells, 5-FU 72-hour treatment; format: cell-based; conditions: PANC-1, 72 h
PANC-1 cells = test: Cell count, PANC-1 cells, 14-day treatment regimen; format: cell-based, human
Description: All treatments were conducted in triplicate. […] Media was refreshed with the respective treatments every 72 hours. After 14 days of treatment, cells were trypsinized and counted.

A549 cells [2] = test: Cell count, A549 cells, 14-day treatment regimen; format: cell-based, human; conditions: A549, 14 days; 3.3 μM cisplatin
Description: All treatments were conducted in triplicate. […] Media was refreshed with the respective treatments every 72 hours.

A549 cells [3] = test: Cell count, A549 cells, cisplatin 72-hour treatment; format: cell-based, human; conditions: A549, 72 h
Description: All experiments were conducted in triplicate.

[4] = test system: PANC-1 pancreatic carcinoma cells; test: MTT growth inhibition, PANC-1 cells, 72-hour treatment; conditions: for Mean absorbance (570 nm): PANC-1, 72 h, 1 μg/mL gefitinib or erlotinib alone
Description: (§1) Cells were kept at 37° C. in a humidified atmosphere of 5% CO2 and grown until they reached a confluency of 90%. Cells were then washed, trypsinized, and counted using a Coulter counter.
(§2) Cells were plated at a density of 10,000 cells/well in 24-well cell culture plates and allowed to adhere for 24 hours. […] All experiments were conducted in sextuplicate. […] Following 72 hours of treatment, growth inhibition was evaluated by the MTT assay according to the manufacturer's instructions. The absorbance at 570 nm was measured using a plate reader.

NSCLC = conditions: Caucasian NSCLC patients; Gottschling 2012; cited from earlier work
A549 NSCLC cells = test: MTT growth inhibition, A549 cells, 72-hour treatment
Description: as §1
A549 NSCLC cells were maintained and cultured as described above. […] Cells were plated at a density of 10,000 cells/well in 24-well cell culture plates and allowed to adhere for 24 hours. […] All experiments were conducted in sextuplicate. […] Following 72 hours of treatment, growth inhibition was evaluated by the 3-(4,5-dimethylthiazol-2-yl)-2,5-diphenyltetrazolium bromide (MTT) assay (Roche Diagnostics Corporation, Indianapolis, Ind.) according to the manufacturer's instructions. The absorbance at 570 nm was measured using a plate reader (BioTek, Winooski, Vt.).

[5] = test system: NCI-H1975 NSCLC cells (EGFR L858R, T790M); test: MTT growth inhibition, NCI-H1975 cells, 72-hour treatment
Description: as §1, §2

A549 cells [6] = test: TUNEL apoptosis assay, A549 cells; format: cell-based, human; conditions: A549, 72 h, 1 μM gefitinib alone
Description: The ability of alpha-gliadin p31-43 to induce apoptosis in cancer cells was assessed. […] Cells were grown in the presence of 5% CO2 at 37° C. in an incubator.
Briefly, A549 cells (1×10^5) were plated in chamber slides and allowed to adhere overnight. […] After the 72-hour treatment, the cells were fixed with 4% formaldehyde in PBS (pH 7.4) for 25 minutes at room temperature, then washed twice for 5 minutes in PBS, permeabilized in 0.2% Triton X-100 solution in PBS for 5 minutes at room temperature, and finally washed twice for 5 minutes in PBS. Apoptosis was measured using the DeadEnd™ Colorimetric TUNEL System (Promega, Madison, Wis.) according to the manufacturer's instructions. At the end of the assay, the cells were mounted and observed under the microscope.

[7] = test system: A549 human lung cancer xenograft; test: A549 human lung cancer xenograft model, tumor volume; format: in vivo, nude mice; conditions: alone or with 200 μg gliadin i.v.; for Mean Tumor Volume: 150 mg/kg gefitinib by gavage once daily 14 days
Source text: Six-week old female nude mice (Harlan Laboratories, Indianapolis, Ind.) were quarantined for 3 days and housed 5 mice per cage, with a 12-hour light-dark cycle, and a relative humidity of 50%. Drinking water and diet were supplied to the animals ad libitum. All animals were housed under pathogen-free conditions. […] The animals were monitored for two weeks following the 14-day treatment period. Tumor measurements were initiated as soon as the tumor formed a palpable mass and measured twice weekly.

[8] = test system: 5-FU-resistant PANC-1 cells; test: Cell count, surviving 5-FU-resistant PANC-1 cells, 7-day gliadin treatment; format: cell-based, human; conditions: 100 μg/mL or 200 μg/mL for 7 additional days
Description: In order to examine the effects of alpha-gliadin peptide p31-43 on PANC-1 cells exposed to 5-FU for an extended period of time (14 days), an experiment was conducted on the surviving, i.e., resistant, cell population (4%) from the previous experiment. Briefly, after counting viable cells on day 14 of treatment, surviving cells were replated at a density of 5,000 cells per well. The following day, cells were treated with vehicle or 100 μg/mL or 200 μg/mL of alpha-gliadin peptide p31-43. Media containing the respective treatments was refreshed on day 3 and 6. On day 7, cells were trypsinized and counted.

[9] = Toxicity in BALB/c mice (body weight, behavior, deaths); format: in vivo; conditions: female BALB/c mice
Description: The toxicity of alpha-gliadin peptide p31-43 in animals was evaluated. Five- to six-week old female BALB/c mice were dosed with vehicle (100 μL DMSO/saline) administered subcutaneously once a day for five days (Group 1) or 200 μg of alpha-gliadin peptide p31-43 in vehicle administered subcutaneously once a day for five days (Group 2). To prepare the gliadin solution, 70 μL of sterile DMSO was added to 1 mg of alpha-gliadin peptide p31-43 and vortexed to dissolve the peptide. After the peptide was dissolved, 430 μL of sterile 0.9% sodium chloride was added and vortexed to create a 1000 μg/500 μL solution of alpha-gliadin peptide p31-43.
Toxicity was evaluated using daily weight measurements and behavior assessments. […] At the end of the study, the mean body weights (±SE) were 19.8±0.4 grams for Group 1 (n=5) and 20.0±0.3 grams for Group 2 (n=5). […] Alpha-gliadin peptide p31-43 was therefore tolerated at a dosing level of 10 mg/kg/day without apparent toxicity.

[10] = 200 μg subcutaneously once a day for five days

Compound `O=c1[nH]cc(F)c(=O)[nH]1` [5-FU, 5-Fluorouracil] has an inhibition at 6.25 µM ([1]; Homo sapiens, 5-FU 6.25 μM) of 63.3%, an inhibition at 12.5 µM ([1]; Homo sapiens, 5-FU 12.5 μM) of 63% and an inhibition at 25 µM ([1]; Homo sapiens, 5-FU 25.0 μM) of 62.8%. The inhibition at 50 µM ([1]; Homo sapiens, 5-FU 50.0 μM) was 63%, the inhibition at 100 µM ([1]; Homo sapiens, 5-FU 100.0 μM) was 68.5% and the inhibition at 200 µM ([1]; Homo sapiens, 5-FU 200.0 μM) was 73.6%. The inhibition at 400 µM ([1]; Homo sapiens, 5-FU 400.0 μM) was 79.2%, the “Mean Cell Number/mL” value ([1]; 5-FU 6.25 μM) was 116,500 /mL and the “Mean Cell Number/mL” value ([1]; 5-FU 12.5 μM) was 117,500 /mL. For the same compound, the “Mean Cell Number/mL” value ([1]; 5-FU 25.0 μM) was 118,200 /mL, the “Mean Cell Number/mL” value ([1]; 5-FU 50.0 μM) was 100,200 /mL and the “Mean Cell Number/mL” value ([1]; 5-FU 100.0 μM) was 117,600 /mL. For the same compound, the “Mean Cell Number/mL” value ([1]; 5-FU 200.0 μM) was 83,900 /mL, the “Mean Cell Number/mL” value ([1]; 5-FU 400.0 μM) was 66,200 /mL and the inhibition at 6.25 µM (PANC-1 cells; Homo sapiens, 336 h, PANC-1, 14 days, 6.25 μM 5-FU) was 96%. The “Mean Cell Number/mL” value (PANC-1 cells; PANC-1, 14 days, 6.25 μM 5-FU) was 33,233 /mL and the “surviving 5-FU-resistant population remaining viable, of the initial population” value (PANC-1 cells; PANC-1, following 14-day 5-FU treatment) was 4%.
In the case of `N.N.[Cl][Pt][Cl]` [cisplatin], the “% Inhibition” value (A549 cells [2]) is reported as 98%, the “Mean Cell Number/mL” value (A549 cells [2]) is reported as 5,780 /mL and the “% Inhibition” value (A549 cells [3]; cisplatin 0.103 μM) is reported as 13.5%. For the same compound, the “Mean Cell” value (A549 cells [3]; cisplatin 0.103 μM) was 166,883, the “% Inhibition” value (A549 cells [3]; cisplatin 0.207 μM) was 21.8% and the “Mean Cell” value (A549 cells [3]; cisplatin 0.207 μM) was 150,917. For the same compound, the “% Inhibition” value (A549 cells [3]; cisplatin 0.413 μM) was 42.0%, the “Mean Cell” value (A549 cells [3]; cisplatin 0.413 μM) was 111,917 and the “% Inhibition” value (A549 cells [3]; cisplatin 0.825 μM) was 74.9%. The “Mean Cell” value (A549 cells [3]; cisplatin 0.825 μM) was 48,400, the “% Inhibition” value (A549 cells [3]; cisplatin 1.650 μM) was 91.6% and the “Mean Cell” value (A549 cells [3]; cisplatin 1.650 μM) was 16,117. The “% Inhibition” value (A549 cells [3]; cisplatin 3.300 μM) was 94.8% and the “Mean Cell” value (A549 cells [3]; cisplatin 3.300 μM) was 10,033.
In the case of `C#Cc1cccc(Nc2ncnc3cc(OCCOC)c(OCCOC)cc23)c1` [erlotinib], the “% Inhibition” value [4] is given as 0%, the “Mean absorbance (570 nm)” value [4] is given as 1.98 and the “patients exhibiting significant changes in disease progression following therapy” value (NSCLC) is given as “about 10%”. For the same compound, the “% Inhibition” value (A549 NSCLC cells) was 3.4%, the “Mean absorbance (570 nm)” value (A549 NSCLC cells) was 1.44 and the “Mean absorbance (570 nm)” value [5] was 1.73.
For `COc1cc2ncnc(Nc3ccc(F)c(Cl)c3)c2cc1OCCCN1CCOCC1` [gefitinib], the “Mean absorbance (570 nm)” value [4] is given as 2.11, the “patients exhibiting significant changes in disease progression following therapy” value (NSCLC) is given as “about 10%” and the “Mean absorbance (570 nm)” value (A549 NSCLC cells) is given as 1.35. For the same compound, the Mean % apoptotic (A549 cells [6]) was 19%, the tumor doubling time ([7]; A549 xenograft, 150 mg/kg gefitinib) was 24.48 days and the “Mean Tumor Volume” value ([7]; Study Day 4 (dosing period)) was 47.74 ± 2.87 mm^3. The “Mean Tumor Volume” value ([7]; Study Day 7 (dosing period)) was 51.67 ± 5.69 mm^3, the “Mean Tumor Volume” value ([7]; Study Day 11 (dosing period)) was 49.30 ± 3.77 mm^3 and the “Mean Tumor Volume” value ([7]; Study Day 14 (dosing period)) was 60.43 ± 5.35 mm^3. For the same compound, the “Mean Tumor Volume” value ([7]; Study Day 18 (recovery period)) was 75.40 ± 9.05 mm^3, the “Mean Tumor Volume” value ([7]; Study Day 21 (recovery period)) was 95.22 ± 11.15 mm^3 and the “Mean Tumor Volume” value ([7]; Study Day 25 (recovery period)) was 157.69 ± 14.76 mm^3. For the same compound, the “Mean Tumor Volume” value ([7]; Study Day 28 (recovery period, termination), 150 mg/kg) was 239.25±32.78 mm^3.
In the case of “LGQQQPFPPQQPY [gliadin, alpha-gliadin peptide p31-43]”, the “cell proliferation of surviving 5-FU-treated PANC-1 cells” value [8] is reported as “cell proliferation was significantly suppressed”, the “behavior changes compared to control mice” value [9, 10] is reported as “No behavior changes were observed” and the treatment-related deaths [9, 10] is reported as “no treatment-related deaths”. For the same compound, the “mean body weight (±SE) at the end of the study” value ([9]; 200 μg subcutaneously once a day for five days, n=5) was 20.0±0.3 grams and the NOAEL at 120 h ([9]; mouse, in vivo, sc, 200 ug, subcutaneously, five days, read-out: dosing level tolerated without apparent toxicity) was 10 mg/kg/day.
